The values that follow come from article PMC9499324, “Glycyrrhizic Acid Derivatives Bearing Amino Acid Residues in the Carbohydrate Part as Dengue Virus E Protein Inhibitors: Synthesis and Antiviral Activity” (International Journal of Molecular Sciences, 2022).

Details of series [1]: method as in earlier work. The note with it: mammals; cited from earlier work.
The nature of series [2]: MTT cytotoxicity assay in Vero E6 cells. In kind it is cell-based. As to conditions: African green monkey. As for the experimental part: Vero E6 cells and A549 cells (5 × 10^3 cells/well) were treated with the serial dilution of GL conjugates at 0, 0.1, 10, 20, and 50 μM for examining the in vitro cytotoxicity of tested compounds. After 96-h incubation at 37 °C, the cells were incubated with MTT (3-(4,5-Dimethylthiazol-2-yl)-2,5-Diphenyltetrazolium Bromide) solution for another 4 h incubation, mixed with DMSO for 15 min after the removal of media, and then measured the absorbance at 570 nm. The viability (%) of treated cells was quantified according to the reduced ability of MTT. Finally, the concentration for reducing 50% cell viability (the 50% cytotoxic concentration, CC50) was determined by regression analysis of the concentration–response survival curve.
Background: Tetrazolium assays rely on reduction of a dye to a coloured formazan, in cell work by metabolically active cells.

In series [3] the test system is DENV2. In words: DENV2-induced cytopathic effect (CPE) reduction screening in Vero E6 cells. In kind it is cell-based, Dengue virus type 2. As to conditions: Dengue virus, Vero C1008; 10 μM compound, DENV2, Vero E6 cells, 96 h; read-out: CPE Reduction at 10 μM. The protocol: (§1) In the antiviral screening assay, each tested GL conjugate at 10 μM was used to survey the anti-DENV activity in Vero E6 cells using cytopathic effect (CPE) and infectivity reduction assays as described in our prior report. In CPE and infectivity reduction assays, Vero E6 cells were infected by DENV2 at an MOI of 0.005 and simultaneously treated 10 μM of indicated GL conjugate for 96 h, and then photographed by microscope for examining the levels of DENV2-induced CPE in infected cells treated with or without GL conjugate. Meanwhile, the cells were further performed using immunofluorescence assay (IFA) with anti-DENV NS4B antibodies (GeneTex, Inc., Hsinchu, Taiwan) and anti-rabbit IgG antibodies conjugated with AF555 (ThermoFisher, Waltham, MA, USA) plus DAPI (4′,6-diamidino-2-phenylindole) nuclear staining. Finally, the DENV-2 infectivity was measured according to the ratio of DENV NS4B-positive cells to DAPI-stained cells in the well of mock-treated or treated cells, as described in [45, 59, 60].
A general note: Cytopathic effects are the visible damage that an infection or toxin causes in cultured cells.

Series [4] has as its system DENV2. In words: DENV2 infectivity inhibition (anti-NS4B immunofluorescence) in Vero E6 cells. In kind it is cell-based, Dengue virus type 2.
From the text: as §1, with “In the antiviral screening assay, each tested GL conjugate at 10 μM was used to survey the anti-DENV activity in Vero E6 cells using cytopathic effect (CPE) and infectivity reduction assays as described in our prior report.” left out, “[…],” for “Vero E6 cells were infected by DENV2 at an MOI of 0.005 and simultaneously treated 10 μM of indicated GL conjugate for 96 h,”

As a reminder, the LD50 is the dose at which mortality reaches 50%. The term CC50 denotes the concentration giving 50% cytotoxicity. By IC50 is commonly meant the concentration that gives 50% inhibition. As to `CC1(C)[C@@H](O[C@H]2O[C@H](C(=O)O)[C@@H](O)[C@H](O)[C@H]2O[C@@H]2O[C@H](C(=O)O)[C@@H](O)[C@H](O)[C@H]2O)CC[C@]2(C)[C@H]3C(=O)C=C4[C@@H]5C[C@@](C)(C(=O)O)CC[C@]5(C)CC[C@@]4(C)[C@]3(C)CC[C@@H]12` [Compound 1, Glycyrrhizic acid], the LD50 in series [1] is recorded as 5000 mg/kg. Also, the CC50 at 96 h in series [2] was above 100 µM. For the same molecule, the inhibition at 10 µM in the series on DENV2 [3] was 50 to 75%; with DENV2 [4] (Dengue virus, Vero C1008, 10 μM compound, DENV2, Vero E6 cells, 96 h, read-out: Inhibition (%) at 10 μM (reduction of NS4B-positive cells)), 70.5%. In the series with DENV2 [4] (Dengue virus, DENV2, Vero C1008, Vero E6 cells, read-out: Inhibition of DENV2 Infectivity (IC50)), the IC50 is 8.1 ± 0.21 µM. Further, the “Selectivity Index (CC50/ IC50)” value with DENV2 [4] (Vero E6 cells, DENV2) is above 12.3.
